Data: ChEMBL document CHEMBL1938230, “6-Position optimization of tricyclic 4-quinolone-based inhibitors of glycogen synthase kinase-3β: discovery of nitrile derivatives with picomolar potency” (Bioorg Med Chem Lett, 2012)

Columns and labels:
[1] = target: T1, Phosphatidylinositol 5-phosphate 4-kinase type-2 gamma (Homo sapiens) (UniProt Q8TBX8); assay: Inhibition of human PIP4K2C in HL-60 cells lysate assessed as reduction of labeling of acyl-phosphate ATP probe at 100 nM; format: cell-free
T1 sequence (whole entry): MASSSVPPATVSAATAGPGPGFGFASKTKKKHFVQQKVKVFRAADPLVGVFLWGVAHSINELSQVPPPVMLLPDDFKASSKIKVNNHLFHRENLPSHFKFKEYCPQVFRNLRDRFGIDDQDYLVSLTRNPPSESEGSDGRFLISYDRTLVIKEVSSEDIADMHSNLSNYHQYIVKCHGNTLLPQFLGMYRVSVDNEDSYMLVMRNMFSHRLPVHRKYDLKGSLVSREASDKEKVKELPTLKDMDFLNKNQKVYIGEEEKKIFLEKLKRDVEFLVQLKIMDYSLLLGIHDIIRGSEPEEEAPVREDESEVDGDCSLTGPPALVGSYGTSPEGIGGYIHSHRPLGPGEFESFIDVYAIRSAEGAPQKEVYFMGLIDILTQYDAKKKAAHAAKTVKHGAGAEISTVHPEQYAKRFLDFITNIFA

HL-60 [2] = assay: Inhibition of human MST4/YSK1 in HL-60 cells lysate assessed as reduction of labeling of acyl-phosphate ATP probe at 100 nM
[3] = target: Serine/threonine-protein kinase B-raf (Homo sapiens) (UniProt P15056); assay: Inhibition of human BRAF in HL-60 cells lysate assessed as reduction of labeling of acyl-phosphate ATP probe at 100 nM; format: cell-free
Chain of Serine/threonine-protein kinase B-raf (Homo sapiens) (P15056 whole entry): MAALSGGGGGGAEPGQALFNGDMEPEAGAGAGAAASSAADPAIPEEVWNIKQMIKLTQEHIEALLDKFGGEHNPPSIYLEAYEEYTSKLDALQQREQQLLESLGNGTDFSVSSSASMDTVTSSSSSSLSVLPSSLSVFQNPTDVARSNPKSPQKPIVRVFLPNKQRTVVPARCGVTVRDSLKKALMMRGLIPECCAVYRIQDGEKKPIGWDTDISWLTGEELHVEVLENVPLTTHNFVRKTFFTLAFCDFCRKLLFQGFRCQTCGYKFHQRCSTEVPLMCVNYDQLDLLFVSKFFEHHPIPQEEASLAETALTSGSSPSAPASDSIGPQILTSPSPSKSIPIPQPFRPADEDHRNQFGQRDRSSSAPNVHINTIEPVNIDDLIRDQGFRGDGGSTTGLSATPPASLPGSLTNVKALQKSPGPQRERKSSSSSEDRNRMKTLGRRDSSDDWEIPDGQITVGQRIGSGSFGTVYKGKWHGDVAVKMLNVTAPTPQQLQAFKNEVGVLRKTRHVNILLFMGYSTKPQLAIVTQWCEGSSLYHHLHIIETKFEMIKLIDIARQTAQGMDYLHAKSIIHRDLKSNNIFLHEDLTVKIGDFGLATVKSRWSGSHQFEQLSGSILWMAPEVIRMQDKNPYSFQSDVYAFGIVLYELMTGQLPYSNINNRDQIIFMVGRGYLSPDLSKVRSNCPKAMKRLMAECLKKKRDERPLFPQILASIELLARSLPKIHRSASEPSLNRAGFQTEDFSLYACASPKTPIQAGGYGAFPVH

[4] = target: T2, Dual specificity mitogen-activated protein kinase kinase 6 (Homo sapiens) (UniProt P52564); assay: Inhibition of human MAP2K6 in HL-60 cells lysate assessed as reduction of labeling of acyl-phosphate ATP probe at 100 nM; format: cell-free
T2 sequence (whole entry): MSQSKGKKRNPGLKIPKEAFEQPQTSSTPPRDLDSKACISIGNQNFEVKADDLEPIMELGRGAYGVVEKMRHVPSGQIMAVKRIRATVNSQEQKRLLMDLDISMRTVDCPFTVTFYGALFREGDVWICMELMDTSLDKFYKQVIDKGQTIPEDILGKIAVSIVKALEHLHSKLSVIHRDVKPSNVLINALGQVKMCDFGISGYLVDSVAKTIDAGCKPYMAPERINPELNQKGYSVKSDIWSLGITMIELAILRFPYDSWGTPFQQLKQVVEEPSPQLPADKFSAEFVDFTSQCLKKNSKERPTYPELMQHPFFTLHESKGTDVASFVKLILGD

[5] = target: Cyclin-dependent kinase 5 (Homo sapiens) (UniProt Q00535); assay: Inhibition of human CDK5 in HL-60 cells lysate assessed as reduction of labeling of acyl-phosphate ATP probe at 100 nM; format: cell-free
Chain of Cyclin-dependent kinase 5 (Homo sapiens) (Q00535 whole entry, looked up): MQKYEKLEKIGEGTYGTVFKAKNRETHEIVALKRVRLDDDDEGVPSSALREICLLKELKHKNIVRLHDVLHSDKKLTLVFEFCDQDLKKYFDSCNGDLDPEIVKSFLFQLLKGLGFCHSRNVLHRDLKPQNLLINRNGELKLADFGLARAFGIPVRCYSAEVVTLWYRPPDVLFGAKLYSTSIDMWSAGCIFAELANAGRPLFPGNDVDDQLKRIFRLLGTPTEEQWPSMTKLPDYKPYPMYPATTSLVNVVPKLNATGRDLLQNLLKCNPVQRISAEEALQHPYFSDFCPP

[6] = target: Tyrosine-protein kinase ABL (Homo sapiens) (UniProt P00519+P42684); assay: Inhibition of human ABL/ARG in HL-60 cells lysate assessed as reduction of labeling of acyl-phosphate ATP probe at 100 nM; format: cell-free
[7] = target: Misshapen-like kinase 1 (Homo sapiens) (UniProt Q8N4C8); assay: Inhibition of human ZC3/MINK in HL-60 cells lysate assessed as reduction of labeling of acyl-phosphate ATP probe at 100 nM; format: cell-free
Chain of Misshapen-like kinase 1 (Homo sapiens) (Q8N4C8 whole entry, looked up): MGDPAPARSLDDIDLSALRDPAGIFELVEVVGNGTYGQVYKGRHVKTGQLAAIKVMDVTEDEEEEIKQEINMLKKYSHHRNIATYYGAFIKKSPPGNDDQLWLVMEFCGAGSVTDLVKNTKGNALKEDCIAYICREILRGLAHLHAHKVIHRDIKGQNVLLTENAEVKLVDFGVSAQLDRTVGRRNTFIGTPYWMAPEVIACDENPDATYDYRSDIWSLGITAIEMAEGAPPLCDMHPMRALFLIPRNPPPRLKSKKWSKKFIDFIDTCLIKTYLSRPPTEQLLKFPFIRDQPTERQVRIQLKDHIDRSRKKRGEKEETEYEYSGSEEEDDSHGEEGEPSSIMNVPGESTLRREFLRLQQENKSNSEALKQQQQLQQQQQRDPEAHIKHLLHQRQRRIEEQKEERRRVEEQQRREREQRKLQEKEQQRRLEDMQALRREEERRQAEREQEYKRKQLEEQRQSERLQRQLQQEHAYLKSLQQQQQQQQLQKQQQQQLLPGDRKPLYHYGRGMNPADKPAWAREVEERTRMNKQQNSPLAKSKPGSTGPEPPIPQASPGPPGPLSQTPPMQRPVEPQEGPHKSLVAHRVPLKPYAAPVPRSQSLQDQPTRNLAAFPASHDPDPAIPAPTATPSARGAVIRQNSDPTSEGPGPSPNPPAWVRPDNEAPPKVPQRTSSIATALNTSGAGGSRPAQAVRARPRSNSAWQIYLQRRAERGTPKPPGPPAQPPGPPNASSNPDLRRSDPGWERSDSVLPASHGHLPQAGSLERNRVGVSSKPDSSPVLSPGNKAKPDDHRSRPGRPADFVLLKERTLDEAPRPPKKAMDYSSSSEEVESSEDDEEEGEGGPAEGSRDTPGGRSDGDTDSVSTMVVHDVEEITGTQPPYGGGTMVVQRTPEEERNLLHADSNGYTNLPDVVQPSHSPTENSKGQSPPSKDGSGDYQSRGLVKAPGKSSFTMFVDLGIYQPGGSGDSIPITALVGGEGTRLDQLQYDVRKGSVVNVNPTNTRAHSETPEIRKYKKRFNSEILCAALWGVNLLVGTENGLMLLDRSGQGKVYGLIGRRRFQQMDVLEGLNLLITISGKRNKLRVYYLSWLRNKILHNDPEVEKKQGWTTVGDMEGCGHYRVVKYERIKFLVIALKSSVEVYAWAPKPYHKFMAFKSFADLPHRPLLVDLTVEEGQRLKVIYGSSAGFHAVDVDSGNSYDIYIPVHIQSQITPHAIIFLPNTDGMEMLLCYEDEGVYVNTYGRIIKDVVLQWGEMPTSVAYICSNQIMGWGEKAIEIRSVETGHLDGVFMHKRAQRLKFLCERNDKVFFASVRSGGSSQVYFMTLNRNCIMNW

HL-60 [8] = assay: Inhibition of human CLK1/CLK4 in HL-60 cells lysate assessed as reduction of labeling of acyl-phosphate ATP probe at 100 nM
[9] = target: Mitogen-activated protein kinase 1 (Homo sapiens) (UniProt P28482); assay: Inhibition of human Erk2 in HL-60 cells lysate assessed as reduction of labeling of acyl-phosphate ATP probe at 100 nM; format: cell-free
Chain of Mitogen-activated protein kinase 1 (Homo sapiens) (P28482 whole entry): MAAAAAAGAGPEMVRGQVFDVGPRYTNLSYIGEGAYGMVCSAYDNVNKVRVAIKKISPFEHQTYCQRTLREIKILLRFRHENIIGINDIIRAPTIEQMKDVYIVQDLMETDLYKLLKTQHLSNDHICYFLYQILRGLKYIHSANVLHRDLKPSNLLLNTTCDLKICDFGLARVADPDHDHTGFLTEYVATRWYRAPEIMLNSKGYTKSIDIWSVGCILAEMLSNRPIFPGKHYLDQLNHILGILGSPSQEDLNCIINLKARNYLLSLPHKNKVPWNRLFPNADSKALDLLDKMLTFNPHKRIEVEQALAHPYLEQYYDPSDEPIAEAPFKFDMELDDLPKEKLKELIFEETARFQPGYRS

[10] = target: T3, Interleukin-1 receptor-associated kinase 3 (Homo sapiens) (UniProt Q9Y616); assay: Inhibition of human IRAK3 in HL-60 cells lysate assessed as reduction of labeling of acyl-phosphate ATP probe at 100 nM; format: cell-free
T3 sequence (whole entry): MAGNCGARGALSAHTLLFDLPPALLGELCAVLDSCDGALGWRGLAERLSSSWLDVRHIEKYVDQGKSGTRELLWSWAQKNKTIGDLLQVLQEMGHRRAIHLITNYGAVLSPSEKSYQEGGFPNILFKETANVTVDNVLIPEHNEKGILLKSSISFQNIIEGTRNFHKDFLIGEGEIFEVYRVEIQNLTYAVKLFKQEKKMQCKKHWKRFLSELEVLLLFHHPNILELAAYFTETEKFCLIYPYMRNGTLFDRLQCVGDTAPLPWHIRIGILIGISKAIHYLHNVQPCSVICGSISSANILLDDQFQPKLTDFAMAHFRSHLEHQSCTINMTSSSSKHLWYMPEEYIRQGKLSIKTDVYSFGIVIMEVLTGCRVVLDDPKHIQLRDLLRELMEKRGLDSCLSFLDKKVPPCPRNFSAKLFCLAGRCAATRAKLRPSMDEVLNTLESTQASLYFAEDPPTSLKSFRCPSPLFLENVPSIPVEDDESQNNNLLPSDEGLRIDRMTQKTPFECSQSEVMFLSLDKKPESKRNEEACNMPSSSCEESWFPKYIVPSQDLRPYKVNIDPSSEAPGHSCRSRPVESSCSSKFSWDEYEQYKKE

[11] = target: Serine/threonine-protein kinase PAK 2 (Homo sapiens) (UniProt Q13177); assay: Inhibition of human PAK2 in HL-60 cells lysate assessed as reduction of labeling of acyl-phosphate ATP probe at 100 nM; format: cell-free
Chain of Serine/threonine-protein kinase PAK 2 (Homo sapiens) (Q13177 whole entry): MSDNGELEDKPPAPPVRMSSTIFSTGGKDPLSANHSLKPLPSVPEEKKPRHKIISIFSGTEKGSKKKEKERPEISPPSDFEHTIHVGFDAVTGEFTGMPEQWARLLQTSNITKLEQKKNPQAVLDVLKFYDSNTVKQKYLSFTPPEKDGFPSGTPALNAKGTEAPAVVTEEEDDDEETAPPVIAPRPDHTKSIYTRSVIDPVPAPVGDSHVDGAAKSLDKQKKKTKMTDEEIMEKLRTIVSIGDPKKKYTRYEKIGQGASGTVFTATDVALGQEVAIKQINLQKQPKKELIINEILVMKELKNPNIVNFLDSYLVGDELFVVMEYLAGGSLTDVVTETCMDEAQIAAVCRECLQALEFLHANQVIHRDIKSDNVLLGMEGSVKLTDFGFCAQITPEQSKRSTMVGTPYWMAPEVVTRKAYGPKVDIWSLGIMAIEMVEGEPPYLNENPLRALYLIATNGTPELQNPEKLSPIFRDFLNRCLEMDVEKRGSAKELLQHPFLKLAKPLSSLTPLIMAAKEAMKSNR

[12] = target: T4, Receptor-interacting serine/threonine-protein kinase 1 (Homo sapiens) (UniProt Q13546); assay: Inhibition of human RIPK1 in HL-60 cells lysate assessed as reduction of labeling of acyl-phosphate ATP probe at 100 nM; format: cell-free
T4 sequence (whole entry): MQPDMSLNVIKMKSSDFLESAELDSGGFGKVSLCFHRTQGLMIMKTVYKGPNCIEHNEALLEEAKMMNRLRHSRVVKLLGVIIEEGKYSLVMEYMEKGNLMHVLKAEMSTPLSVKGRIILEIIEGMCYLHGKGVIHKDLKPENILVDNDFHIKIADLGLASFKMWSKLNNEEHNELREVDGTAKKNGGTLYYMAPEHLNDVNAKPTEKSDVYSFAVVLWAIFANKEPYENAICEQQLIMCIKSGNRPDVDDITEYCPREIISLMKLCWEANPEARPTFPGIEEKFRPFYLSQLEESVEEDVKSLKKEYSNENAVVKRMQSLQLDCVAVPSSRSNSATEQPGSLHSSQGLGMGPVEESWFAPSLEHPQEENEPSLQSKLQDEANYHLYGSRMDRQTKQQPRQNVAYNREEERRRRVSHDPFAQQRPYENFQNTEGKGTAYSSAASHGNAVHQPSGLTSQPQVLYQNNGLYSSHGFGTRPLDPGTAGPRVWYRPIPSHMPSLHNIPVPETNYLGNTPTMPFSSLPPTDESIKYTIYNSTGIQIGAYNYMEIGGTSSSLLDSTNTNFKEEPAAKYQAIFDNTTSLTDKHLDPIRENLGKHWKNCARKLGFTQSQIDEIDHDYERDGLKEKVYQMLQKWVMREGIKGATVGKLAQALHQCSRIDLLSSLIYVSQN

C[C@H]1COc2c(NCCCc3ccccn3)c(F)c(N)c3c(=O)c(C#N)cn1c23
< 35%: inhibition [1] | inhibition at 0.1 µM (HL-60 [2]) | inhibition [3] | inhibition [4] | inhibition [5] | inhibition [6] | inhibition [7] | inhibition at 0.1 µM (HL-60 [8]) | inhibition [9] | inhibition [10] | inhibition [11] | inhibition [12]

C[C@H]1COc2c(NCCCc3ccccn3)c(F)c(N)c3c(=O)c(C(=O)O)cn1c23
< 35%: inhibition [1] | inhibition at 0.1 µM (HL-60 [2]) | inhibition [3] | inhibition [4] | inhibition [5] | inhibition [6] | inhibition [7] | inhibition at 0.1 µM (HL-60 [8]) | inhibition [9] | inhibition [10] | inhibition [11] | inhibition [12]

C[C@H]1COc2c(NCCCn3cccn3)c(F)c(N)c3c(=O)c(C(=O)O)cn1c23
< 35%: inhibition [1] | inhibition at 0.1 µM (HL-60 [2]) | inhibition [3] | inhibition [4] | inhibition [5] | inhibition [6] | inhibition [7] | inhibition at 0.1 µM (HL-60 [8]) | inhibition [9] | inhibition [10] | inhibition [11] | inhibition [12]

C[C@H]1COc2c(NCCCn3cccn3)c(F)c(N)c3c(=O)c(C#N)cn1c23
< 35%: inhibition [1] | inhibition at 0.1 µM (HL-60 [2]) | inhibition [3] | inhibition [4] | inhibition [5] | inhibition [6] | inhibition [7] | inhibition at 0.1 µM (HL-60 [8]) | inhibition [9] | inhibition [10] | inhibition [11] | inhibition [12]
